The record followed here is patent US20240025908A1, “COMPOUND USED AS KINASE INHIBITOR AND USE THEREOF” (TYK MEDICINES, INC., priority 2020, published 2024).

pIC50: −log10 of the molar value. Where two headings read alike, the source gives them in different places.

One experiment addresses TRKA (G677C) (Homo sapiens, UniProt P04629, G667C). As to the kind of experiment: Radio-tagged HotSpot kinase assay, TRKA (G677C). The class given is biochemical. As to conditions: for IC50: read-out: TRKA (G677C) (IC50/nM). On the procedure:
(§1) Inhibition of protein kinase activity by compounds was carried out on the Radio-tagged HotSpot kinase experimental platform of Reaction Biology Corporation. Fresh reaction solution (20 mM TIEPESpH 7.5, 10 mM MgCl2, 1 mM EGTA, 0.02% Brij35, 0.02 mg/ml BSA, 0.1 mM Na3VO4, 2 mM DTT, […]) containing corresponding substrates was prepared, cofactor and kinase to be tested were added into the above solution and mixed gently. Echo550 pipetting system was used to add the test compound DMSO solution to each well (the blank control group was added with the corresponding volume of DMSO), then 33P-ATP (with a final specific activity of 0.01 μCi/μL) was added to start the reaction. The reaction solution was incubated at room temperature for 120 minutes. Transferred the incubated reaction solution to P81 ion exchange chromatographic paper (Whatman #3698-915), eluted with […] phosphoric acid solution, and the amount of radioactive phosphorylated substrate remaining on the chromatographic paper was detected.

The next experiment deals with ROS1 (Homo sapiens (Human), UniProt P08922). As to the kind of experiment: Radio-tagged HotSpot kinase assay, ROS1. In kind it is biochemical. On the procedure: as §1
The target in another experiment is ROS1 (G2032R) (Homo sapiens (Human), UniProt P08922, G2032R). As to the kind of experiment: Radio-tagged HotSpot kinase assay, ROS1 (G2032R). The class given is biochemical. On the procedure: as §1
A further experiment concerns the target TRKA (Homo sapiens (Human), UniProt P04629). As to the kind of experiment: Radio-tagged HotSpot kinase assay, TRKA. In kind it is biochemical. On the procedure:
as §1

Another experiment addresses ALK (G1202R) (Homo sapiens (Human), UniProt Q9UM73, G1202R). Nature of the experiment: Radio-tagged HotSpot kinase assay, ALK (G1202R). In kind it is biochemical. On the procedure:
as §1

The subject of experiment [1] is Ba/F3-CD74-ROS1-G2032R cells. Nature of the experiment: In vivo efficacy study, subcutaneous Ba/F3-CD74-ROS1-G2032R tumor. Also noted: species or system BALB/c nude mice. The note with it: 20 mg/kg P.O. BID × 2 weeks. On the procedure: Cell culture: Ba/F3-CD74-ROS1-G2032R cell line was cultured with 1640 medium (Biological Industries)+10% fetal bovine serum (BI)+1% double antibody (Penicillin Streptomycin solution, Corning, USA) at 37° C. with 5% CO2. Two passages were performed for one week. When the cell saturation was 80%-90% and the number reached the required level, the cells were collected, counted and inoculated.
Animals: BALB/c nude mice, female, 6-8 weeks of age, weighing 15-20 g. A total of 6 mice were required, provided by Beijing Vital River Laboratory Animal Technology Co., Ltd.
Tumor inoculation: 0.2 ml (2×10^6) Ba/F3-CD74-ROS1-G2032R cells (plus stromal gel, volume ratio 1:1) were inoculated subcutaneously on the right posterior dorsum of each mouse, and group dosing was started when the average tumor volume reached about 150-200 mm^3.
Experimental index: Tumor volume and body weight were measured twice a week. Tumor volume was measured by vernier calipers with the formula TV=0.5 a×b2, wherein a is the long diameter of the tumor and b is the short diameter of the tumor.

A further experiment addresses ALK (Homo sapiens (Human), UniProt Q9UM73). As to the kind of experiment: Radio-tagged HotSpot kinase assay, ALK. In kind it is biochemical. On the procedure:
as §1

A further experiment deals with Ba/F3-TEL-ALK-G1202R. Nature of the experiment: Inhibition of cell proliferation (CellTiter-Glo), Ba/F3-TEL-ALK-G1202R. The class given is cell-based. As to conditions: 72 hours. On the procedure: (§2) The experiment of inhibiting cell proliferation by compounds was carried out in Hefei Zhongkeprecedo Biomedical Technology Co., Ltd. The Ba/F3 engineered cell line stably transfected with different kinase genes was recovered with RPMI 1640 medium (Biological Industries, Israel)+10% fetal bovine serum (Biological Industries, Israel)+1% double antibody (Penicillin Streptomycin solution, Coring, USA) and cultivated two generations. The logarithmic growth phase cell suspension was taken, and 2000 cells/well were inoculated on 96-well white cell culture plate (Corning 3917, NY, USA) with a volume of 95 μL per well. 5 μL of 20×DMSO solution of the compound to be tested was added into the culture plate containing 95 μL of cell suspension. The blank control group was added with corresponding volume of DMSO, mixed well, and incubated in a 5% CO2 incubator at 37° C. for 72 hours. CellTiter-Glo was used to detect cell viability.
On the technique in general: In ATP-based viability assays light output follows the ATP content of the culture.

The next experiment relates to Ba/F3-LMNA-NTRK1-G595R. As to the kind of experiment: Inhibition of cell proliferation (CellTiter-Glo), Ba/F3-LMNA-NTRK1-G595R. In kind it is cell-based. As to conditions: 72 hours. On the procedure:
as §2

A further experiment relates to Ba/F3-CD74-ROS1-G2032R. Nature of the experiment: Inhibition of cell proliferation (CellTiter-Glo), Ba/F3-CD74-ROS1-G2032R. The class given is cell-based. As to conditions: 72 hours. On the procedure:
as §2

ALK (G1202R), sequence (Q9UM73 19-1620 G1202R): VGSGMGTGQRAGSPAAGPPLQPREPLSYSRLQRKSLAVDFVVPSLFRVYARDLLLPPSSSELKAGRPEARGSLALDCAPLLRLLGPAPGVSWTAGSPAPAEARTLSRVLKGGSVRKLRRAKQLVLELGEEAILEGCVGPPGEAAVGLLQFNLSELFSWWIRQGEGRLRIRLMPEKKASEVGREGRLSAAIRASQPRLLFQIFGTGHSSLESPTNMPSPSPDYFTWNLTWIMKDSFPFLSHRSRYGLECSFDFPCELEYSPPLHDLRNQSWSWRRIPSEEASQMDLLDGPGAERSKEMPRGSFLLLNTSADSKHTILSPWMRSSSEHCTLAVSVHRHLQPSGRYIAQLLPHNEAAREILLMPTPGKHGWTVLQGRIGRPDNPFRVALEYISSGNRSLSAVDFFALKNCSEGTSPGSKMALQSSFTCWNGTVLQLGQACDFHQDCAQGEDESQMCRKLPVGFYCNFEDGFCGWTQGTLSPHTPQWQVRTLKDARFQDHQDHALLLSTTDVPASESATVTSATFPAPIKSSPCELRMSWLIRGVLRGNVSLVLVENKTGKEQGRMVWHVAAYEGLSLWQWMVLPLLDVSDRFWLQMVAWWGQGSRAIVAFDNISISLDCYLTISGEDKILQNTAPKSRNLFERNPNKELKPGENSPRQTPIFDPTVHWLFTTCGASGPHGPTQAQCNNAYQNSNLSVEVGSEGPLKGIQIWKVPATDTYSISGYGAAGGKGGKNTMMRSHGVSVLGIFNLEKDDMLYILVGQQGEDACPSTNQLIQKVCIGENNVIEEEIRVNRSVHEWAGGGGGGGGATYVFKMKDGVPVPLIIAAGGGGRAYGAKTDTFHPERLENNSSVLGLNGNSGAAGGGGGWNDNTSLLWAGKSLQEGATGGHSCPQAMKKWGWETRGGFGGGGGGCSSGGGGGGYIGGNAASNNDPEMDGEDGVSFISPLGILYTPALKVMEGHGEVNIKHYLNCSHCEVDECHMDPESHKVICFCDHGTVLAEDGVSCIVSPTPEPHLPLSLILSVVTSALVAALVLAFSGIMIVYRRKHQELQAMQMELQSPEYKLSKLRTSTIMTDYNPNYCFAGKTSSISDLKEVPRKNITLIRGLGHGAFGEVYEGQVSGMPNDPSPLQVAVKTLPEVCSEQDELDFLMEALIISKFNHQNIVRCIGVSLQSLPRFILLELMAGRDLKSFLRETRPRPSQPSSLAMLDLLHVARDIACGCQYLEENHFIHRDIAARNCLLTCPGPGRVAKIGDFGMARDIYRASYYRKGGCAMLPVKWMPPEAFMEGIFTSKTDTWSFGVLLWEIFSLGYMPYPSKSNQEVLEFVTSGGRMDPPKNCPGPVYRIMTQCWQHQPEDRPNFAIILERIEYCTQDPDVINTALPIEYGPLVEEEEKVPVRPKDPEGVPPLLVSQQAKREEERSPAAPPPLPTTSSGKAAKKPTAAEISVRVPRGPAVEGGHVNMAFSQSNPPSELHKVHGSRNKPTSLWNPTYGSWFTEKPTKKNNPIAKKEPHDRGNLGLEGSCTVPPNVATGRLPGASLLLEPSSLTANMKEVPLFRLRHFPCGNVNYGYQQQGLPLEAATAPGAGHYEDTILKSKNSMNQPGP
ROS1 (G2032R), sequence (P08922 28-2347 G2032R): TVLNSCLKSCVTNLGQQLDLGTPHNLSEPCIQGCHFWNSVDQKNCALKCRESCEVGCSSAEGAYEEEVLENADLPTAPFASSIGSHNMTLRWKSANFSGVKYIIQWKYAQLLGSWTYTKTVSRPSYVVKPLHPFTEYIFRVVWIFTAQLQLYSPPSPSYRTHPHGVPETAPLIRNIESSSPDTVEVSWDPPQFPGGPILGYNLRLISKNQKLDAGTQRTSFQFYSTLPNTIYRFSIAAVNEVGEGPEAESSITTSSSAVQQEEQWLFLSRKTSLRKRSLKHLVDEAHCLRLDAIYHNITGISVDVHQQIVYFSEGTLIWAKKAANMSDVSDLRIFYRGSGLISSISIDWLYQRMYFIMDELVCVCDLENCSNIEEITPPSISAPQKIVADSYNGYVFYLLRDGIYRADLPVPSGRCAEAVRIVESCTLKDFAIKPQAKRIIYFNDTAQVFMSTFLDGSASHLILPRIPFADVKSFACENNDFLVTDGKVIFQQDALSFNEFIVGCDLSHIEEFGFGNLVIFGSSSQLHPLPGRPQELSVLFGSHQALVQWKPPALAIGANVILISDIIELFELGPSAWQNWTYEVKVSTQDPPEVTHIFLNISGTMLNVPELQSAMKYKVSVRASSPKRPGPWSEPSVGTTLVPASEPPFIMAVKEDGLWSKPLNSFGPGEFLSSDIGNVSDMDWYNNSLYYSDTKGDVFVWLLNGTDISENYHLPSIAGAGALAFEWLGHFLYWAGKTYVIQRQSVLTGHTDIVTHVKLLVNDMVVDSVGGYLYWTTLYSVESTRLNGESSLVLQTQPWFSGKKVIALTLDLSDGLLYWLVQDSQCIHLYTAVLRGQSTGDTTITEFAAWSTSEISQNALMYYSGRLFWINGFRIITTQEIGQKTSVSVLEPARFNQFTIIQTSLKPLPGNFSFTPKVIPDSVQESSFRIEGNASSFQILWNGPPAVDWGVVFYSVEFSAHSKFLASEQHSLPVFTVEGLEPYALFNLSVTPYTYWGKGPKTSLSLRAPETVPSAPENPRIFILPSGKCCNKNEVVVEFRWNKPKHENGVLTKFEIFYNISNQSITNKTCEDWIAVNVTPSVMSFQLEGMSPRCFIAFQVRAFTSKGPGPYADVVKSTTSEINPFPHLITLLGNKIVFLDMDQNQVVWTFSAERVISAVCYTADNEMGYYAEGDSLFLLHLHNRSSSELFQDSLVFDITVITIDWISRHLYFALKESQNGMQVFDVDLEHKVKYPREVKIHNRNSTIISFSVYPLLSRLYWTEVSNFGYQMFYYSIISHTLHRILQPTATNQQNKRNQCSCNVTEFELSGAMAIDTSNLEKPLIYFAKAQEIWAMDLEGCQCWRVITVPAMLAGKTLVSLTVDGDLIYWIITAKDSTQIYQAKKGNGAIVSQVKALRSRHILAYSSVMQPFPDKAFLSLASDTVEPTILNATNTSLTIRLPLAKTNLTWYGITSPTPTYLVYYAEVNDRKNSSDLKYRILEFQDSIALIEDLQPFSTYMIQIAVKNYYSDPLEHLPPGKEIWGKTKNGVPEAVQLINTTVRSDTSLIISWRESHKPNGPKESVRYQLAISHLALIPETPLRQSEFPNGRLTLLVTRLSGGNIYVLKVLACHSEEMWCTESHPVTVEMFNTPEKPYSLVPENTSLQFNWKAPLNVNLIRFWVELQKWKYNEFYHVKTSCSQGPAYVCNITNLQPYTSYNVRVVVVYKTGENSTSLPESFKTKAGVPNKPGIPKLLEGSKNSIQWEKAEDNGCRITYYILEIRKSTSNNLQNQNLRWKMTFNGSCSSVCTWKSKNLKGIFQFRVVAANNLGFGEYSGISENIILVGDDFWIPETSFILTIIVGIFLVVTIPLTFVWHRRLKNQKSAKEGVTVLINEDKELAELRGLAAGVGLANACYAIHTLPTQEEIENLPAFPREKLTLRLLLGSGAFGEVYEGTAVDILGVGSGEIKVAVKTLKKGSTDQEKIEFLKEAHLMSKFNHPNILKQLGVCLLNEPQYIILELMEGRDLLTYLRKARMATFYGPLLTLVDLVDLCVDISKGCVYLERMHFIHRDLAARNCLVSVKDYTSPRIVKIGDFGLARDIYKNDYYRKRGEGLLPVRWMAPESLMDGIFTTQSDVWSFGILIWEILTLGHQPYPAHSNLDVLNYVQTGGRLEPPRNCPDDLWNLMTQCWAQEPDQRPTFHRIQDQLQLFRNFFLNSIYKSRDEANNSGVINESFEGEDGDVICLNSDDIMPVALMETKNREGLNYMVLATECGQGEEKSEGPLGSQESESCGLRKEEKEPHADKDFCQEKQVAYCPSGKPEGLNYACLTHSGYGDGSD
TRKA (G677C), sequence (P04629 33-796 G667C limits assumed): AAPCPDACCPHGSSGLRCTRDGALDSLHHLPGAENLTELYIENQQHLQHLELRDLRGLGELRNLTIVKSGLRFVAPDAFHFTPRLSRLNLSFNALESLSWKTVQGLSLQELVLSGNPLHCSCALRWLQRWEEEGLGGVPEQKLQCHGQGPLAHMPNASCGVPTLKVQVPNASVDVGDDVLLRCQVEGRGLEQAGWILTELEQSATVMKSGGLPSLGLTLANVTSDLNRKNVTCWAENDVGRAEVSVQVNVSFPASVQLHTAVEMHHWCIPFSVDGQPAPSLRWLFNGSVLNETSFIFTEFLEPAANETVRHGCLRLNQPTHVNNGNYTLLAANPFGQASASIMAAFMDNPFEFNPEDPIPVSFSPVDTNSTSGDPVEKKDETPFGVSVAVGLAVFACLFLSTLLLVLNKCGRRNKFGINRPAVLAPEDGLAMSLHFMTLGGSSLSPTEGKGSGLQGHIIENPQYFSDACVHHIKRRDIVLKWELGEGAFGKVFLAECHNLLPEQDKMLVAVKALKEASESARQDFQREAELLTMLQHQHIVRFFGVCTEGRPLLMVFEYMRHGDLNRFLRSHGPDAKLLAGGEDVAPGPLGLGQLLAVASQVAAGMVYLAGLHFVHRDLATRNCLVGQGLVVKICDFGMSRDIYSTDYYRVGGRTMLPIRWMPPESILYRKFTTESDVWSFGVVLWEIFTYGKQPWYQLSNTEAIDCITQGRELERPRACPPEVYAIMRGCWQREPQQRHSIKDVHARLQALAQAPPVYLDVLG
ROS1, sequence (P08922 28-2347): as the sequence (P08922 28-2347 G2032R) above, with R2005G counted along it
ALK, sequence (Q9UM73 19-1620): as the sequence (Q9UM73 19-1620 G1202R) above, with R1184G counted along it
TRKA, sequence (P04629 33-796): as the sequence (P04629 33-796 G667C limits assumed) above, with C635G counted along it

Regarding `C[C@@H](Nc1ccn2ncc(C3=NOCC(C)(C)N3)c2n1)c1cc(F)cc(F)c1F` [Example 4], the IC50 on TRKA (G677C) was 0.5 to 5 nM; on ROS1, < 0.5 nM; at ROS1 (G2032R), 0.5 to 5 nM; against TRKA, < 0.5 nM; at ALK (G1202R), 5 to 50 nM; on ALK, 0.5 to 5 nM. Moreover, the “Tumor Volume” value in experiment [1] (0 days) came out at 167.31 mm^3; in experiment [1] (4 days), 216.42 mm^3; in [1] (7 days), 292.24 mm^3; in experiment [1] (11 days) it was 375.67 mm^3; in experiment [1] (14 days), 688.91 mm^3.
Consider `C[C@@H](Nc1ccn2ncc(C3=NC(=O)C(C)(C)N3)c2n1)c1cc(F)ccc1OC(F)F` [Example 6], for which the IC50 at TRKA (G677C) was < 0.5 nM; in the experiment on Ba/F3-TEL-ALK-G1202R, 110 nM; in the experiment on Ba/F3-LMNA-NTRK1-G595R, 13.4 nM; at ROS1, < 0.5 nM; on ROS1 (G2032R) it was < 0.5 nM; with Ba/F3-CD74-ROS1-G2032R, 24.1 nM. In addition, the IC50 was < 0.5 nM on TRKA, 5 to 50 nM against ALK (G1202R) and 0.5 to 5 nM on ALK.
As to `COc1ccc(F)cc1[C@@H](C)Nc1ccn2ncc(C3=NC(=O)C(C)(C)N3)c2n1` [Example 7], the IC50 is < 0.5 nM on TRKA (G677C); 36.1 nM with Ba/F3-LMNA-NTRK1-G595R; < 0.5 nM against ROS1; < 0.5 nM on ROS1 (G2032R); 54.6 nM in the experiment on Ba/F3-CD74-ROS1-G2032R; < 0.5 nM against TRKA. Moreover, the figures for the IC50 against ALK (G1202R) and against ALK were 5 to 50 nM and 0.5 to 5 nM, respectively.
As to `C[C@@H](Nc1ccn2ncc(C3=NOCCN3)c2n1)c1cc(F)ccc1OC(F)F` [Example 9], the IC50 on TRKA (G677C) was < 0.5 nM; in the experiment on Ba/F3-TEL-ALK-G1202R, 75.6 nM; with Ba/F3-LMNA-NTRK1-G595R, 6.1 nM; against ROS1, < 0.5 nM; on ROS1 (G2032R), < 0.5 nM; in the experiment with Ba/F3-CD74-ROS1-G2032R, 31.6 nM. Further, the IC50 at TRKA was < 0.5 nM; against ALK (G1202R), 5 to 50 nM; at ALK it was 0.5 to 5 nM.
Consider `C[C@@H](Nc1ccn2ncc(C3=NOCCN3)c2n1)c1cc(F)ccc1OC(F)(F)F` [Example 26], for which the pIC50 – broadly, the IC50 on a negative log10 scale, so that one unit is a factor of ten – against TRKA (G677C) was 8.30 to 9.30. Further, the IC50 in the experiment on Ba/F3-TEL-ALK-G1202R is 100 nM; with Ba/F3-LMNA-NTRK1-G595R, 11.2 nM; at ROS1 it was < 0.5 nM; at ROS1 (G2032R), 0.5 to 5 nM; in the experiment on Ba/F3-CD74-ROS1-G2032R it was 35.2 nM; at TRKA it was < 0.5 nM. In addition, the results for the IC50 at ALK (G1202R) and at ALK were 5 to 50 nM and 0.5 to 5 nM, respectively.
Take `C[C@@H](Nc1ccn2ncc(C3=NOCCN3)c2n1)c1cc(F)ccc1C(F)F` [Example 28]: the IC50 on TRKA (G677C) lay within 50 to 500 nM; on ROS1, 0.5 to 5 nM; on ROS1 (G2032R) it was 50 to 500 nM; against TRKA, 0.5 to 5 nM; on ALK (G1202R), 50 to 500 nM; on ALK it was 5 to 50 nM.
